Test results reported in US7368578B2, “Five-membered heterocyclic compounds” (Takeda Pharmaceutical Company Limited, priority 2002, dated 2008).

Experiments:
[1] = molecular target: T1, human PPARγ1 (Homo sapiens, UniProt P37231); assay: Human PPARγ1 antagonist assay (luciferase reporter in PPARγ:RXRα:4ERPP/CHO-K1 cells); assay type: cell-based; conditions: 10 nM compound A as stimulant, luciferase activity, 24 hrs, read-out: Inhibitory rate (%); for inhibition at 1 µM: test compound 10^−6 M
T1 construct: expressed in transfected cells; host or cells: CHO-K1 cells stably transfected with pVgRXR2-hPPARγ and reporter plasmid pGL3-4ERPP-TK neo
T1 sequence (P37231 1-477 isoform P37231-2): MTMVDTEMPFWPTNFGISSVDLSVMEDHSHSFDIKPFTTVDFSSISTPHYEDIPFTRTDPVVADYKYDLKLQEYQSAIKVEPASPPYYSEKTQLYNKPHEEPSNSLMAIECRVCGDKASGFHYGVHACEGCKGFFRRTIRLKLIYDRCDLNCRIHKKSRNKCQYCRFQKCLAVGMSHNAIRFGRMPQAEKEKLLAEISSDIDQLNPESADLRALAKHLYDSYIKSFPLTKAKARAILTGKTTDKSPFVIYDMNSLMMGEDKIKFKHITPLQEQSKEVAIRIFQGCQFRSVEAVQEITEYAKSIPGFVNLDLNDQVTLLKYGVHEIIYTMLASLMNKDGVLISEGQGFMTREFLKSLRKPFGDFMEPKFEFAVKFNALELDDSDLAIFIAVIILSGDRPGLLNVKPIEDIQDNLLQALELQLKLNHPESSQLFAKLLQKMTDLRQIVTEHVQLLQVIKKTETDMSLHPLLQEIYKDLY
T1 sequence (P19793 1-462 partner): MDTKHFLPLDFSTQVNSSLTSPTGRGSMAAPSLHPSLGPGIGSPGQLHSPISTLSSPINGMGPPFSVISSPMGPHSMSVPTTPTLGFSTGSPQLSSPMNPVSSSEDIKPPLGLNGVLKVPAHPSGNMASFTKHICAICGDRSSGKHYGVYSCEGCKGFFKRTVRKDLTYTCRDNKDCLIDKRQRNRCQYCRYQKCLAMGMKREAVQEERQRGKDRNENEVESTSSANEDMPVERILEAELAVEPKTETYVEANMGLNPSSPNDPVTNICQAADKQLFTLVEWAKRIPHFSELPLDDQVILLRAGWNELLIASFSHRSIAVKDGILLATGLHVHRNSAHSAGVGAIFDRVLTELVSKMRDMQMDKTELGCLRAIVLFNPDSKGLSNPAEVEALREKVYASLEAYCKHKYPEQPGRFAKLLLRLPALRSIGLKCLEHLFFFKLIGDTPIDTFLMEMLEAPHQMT
Protocol: PPARγ:RXRα:4ERPP/CHO-K1 cells (obtained in Reference Example 5a) cultured in Ham's F-12 medium (GIBCO, Inc.) supplemented with 10% fetal bovine serum (TRACE SCIENTIFIC, Ltd.) were seeded in a well of a 96 well white plate at 2×10^4 cells/well and cultured under 37° C. 5% CO2 conditions for 24 hrs. After removal of the medium, Ham's F-12 medium (GIBCO) containing 60 μl of 0.1% BSA (not containing fatty acid) (Wako Pure Chemical Industries, Ltd.), 20 μl of 10^−5M or 10^−6 M test compound and 20 μl of compound A having a final concentration of 10 nM as a stimulant were added, and the cells were cultured under 37° C. 5% CO2 conditions for 24 hrs. After removal of the medium, 40 μl of Pickagene LT7.5 (Wako Pure Chemical Industries, Ltd.) 2-fold diluted with HBSS (HANKS' BALANCED SALT SOLUTION) (BIO WHITTAKER Inc.) was added. After stirring, luciferase activity was measured using 1420 ARVO Multilabel Counter (Wallac, Inc.). In addition, a test similar to the above was conducted for the non-use of the aforementioned test compound alone and for the non-use of the aforementioned test compound and compound A to determine the luciferase activity.
The human PPARγ1 antagonistic activity of the test compound was evaluated using percentages (% inhibition) wherein the luciferase activity when 10 nM compound A alone was added was 0%, and the luciferase activity when the test compound and compound A were not added was 100%. The concentration of the test compound was 10^−5 M for the compounds of Example 42 and 315 and 10^−6 M for other test compounds.
After a CHO-K1 cell cultured in a cell culture flask (150 cm^2) (produced by Corning Costar Corporation, USA) containing Ham's F-12 medium (produced by Life Technologies, Inc., USA) supplemented with 10% fetal bovine serum (produced by Life Technologies, Inc., USA) was detached by treating with 0.5 g/L trypsin-0.2 g/L EDTA (ethylenediaminetetraacetic acid) (produced by Life Technologies, Inc., USA), the cell was washed with PBS (phosphate-buffered saline) (produced by Life Technologies, Inc., USA), centrifuged (1000 rpm, 5 minutes), and then suspended in PBS. Subsequently, the DNA was introduced into the cells under the conditions shown below using GENE PULSER (produced by Bio-Rad Laboratories, USA).
Namely, to a cuvette having a 0.4 cm gap, added were 8×10^6 cells and 10 μg of plasmid pVgRXR2-hPPARγ obtained in Reference Example 4a and 10 μg of reporter plasmid pGL3-4ERPP-TK neo obtained in Reference Example 2a, which was subjected to electroporation at the voltage of 0.25 kV under the capacitance of 960 μF. Subsequently, the cell was transferred into a Ham's F-12 medium containing 10% fetal bovine serum and cultured for 24 hours and then the cells were detached again and centrifuged, and then suspended in HAM F12 medium containing 10% fetal bovine serum supplemented with 500 μg/ml of GENETICIN (produced by Life Technologies, Inc., USA) and 250 μg/ml of ZEOCIN (produced by Invitrogen, USA). The obtained suspension was diluted to the density of 10^4 cells/ml and inoculated to a 96-well plate (produced by Corning Costar Corporation, USA), which was cultured in a CO2 gas incubator at 37° C., whereby obtaining a GENETICIN- and ZEOCIN-resistant transformant. Subsequently, after the transformant cell line thus obtained was cultured in a 24-well plate (produced by Corning Costar Corporation, USA), selected was a cell line in which the luciferase was expressed and induced, i.e., PPARγ:RXRα:4ERPP/CHO-K1 cell by the addition of 10 μM pioglitazone hydrochloride.

Row | inhibition at 1 µM [1] | Compound | melting point | inhibition at 10 µM ([1]; test compound 10^−5 M)
1 | 96% | COc1cc(COc2nn(-c3ccccc3)cc2/C=C/P(=O)(OC(C)C)OC(C)C)ccc1OCc1nc(-c2ccco2)oc1C [Example 145, diisopropyl (E)-2-{3-[(4-{[2-(2-furyl)-5-methyl-1,3-oxazol-4-yl]methoxy}-3-methoxybenzyl)oxy]-1-phenyl-1H-pyrazol-4-yl}ethenylphosphonate] | 152 to 153 °C | –
2 | 82% | COc1cc(COc2nn(-c3ccccc3)cc2/C=C/c2csc(C)n2)ccc1OCc1nc(-c2ccco2)oc1C [Example 150 (E form), 2-(2-furyl)-4-({2-methoxy-4-[({4-[(E)-2-(2-methyl-1,3-thiazol-4-yl)ethenyl]-1-phenyl-1H-pyrazol-3-yl}oxy)methyl]phenoxy}methyl)-5-methyl-1,3-oxazole] | 111 to 112 °C | –
3 | 66% | CCC(=O)/C=C/c1cn(-c2ccccc2)nc1OCc1ccc(OCc2nc(-c3ccco3)oc2C)c(OC)c1 [Example 156, (1E)-1-{3-[(4-{[2-(2-furyl)-5-methyl-1,3-oxazol-4-yl]methoxy}-3-methoxybenzyl)oxy]-1-phenyl-1H-pyrazol-4-yl}-1-penten-3-one] | 167 to 168 °C | –
4 | 112% | CCc1nc(/C=C/c2cn(-c3ccccc3)nc2OCc2ccc(OCc3nc(-c4cccc(C(=O)O)c4)oc3C)c(OC)c2)cs1 [Example 224, 3-[4-({4-[({4-[(E)-2-(2-ethyl-1,3-thiazol-4-yl)ethenyl]-1-phenyl-1H-pyrazol-3-yl}oxy)methyl]-2-methoxyphenoxy}methyl)-5-methyl-1,3-oxazol-2-yl]benzoic acid] | 190 to 191 °C | –
5 | 69% | COc1cc(COc2nn(-c3ccccc3)cc2/C=C/C#N)ccc1OCc1nc(-c2ccccc2)oc1C [Example 282, (E)-3-(3-{[3-methoxy-4-(5-methyl-2-phenyl-1,3-oxazol-4-ylmethoxy)benzyl]oxy}-1-phenyl-1H-pyrazol-4-yl)-2-propenonitrile] | 184 to 185 °C | –
6 | 107% | CCOC(=O)/C=C/c1cn(-c2ccccc2)nc1OCc1ccc(OCc2nc(-c3ccccc3)oc2C)c(OC)c1 [Example 284, ethyl (E)-3-(3-{[3-methoxy-4-(5-methyl-2-phenyl-1,3-oxazol-4-ylmethoxy)benzyl]oxy}-1-phenyl-1H-pyrazol-4-yl)-2-propenoate] | 194 to 195 °C | –
7 | 108% | CCc1nc(/C=C/c2cn(-c3ccccc3)nc2OCc2ccc(OCc3nc(-c4cccc(C(=O)O)c4)oc3C)c(OC)c2)co1 [Example 307] | 169 to 171 °C | –

Continued, compound first:

Row | Compound | inhibition at 1 µM [1] | melting point | inhibition at 10 µM ([1]; test compound 10^−5 M)
8 | CCOP(=O)(/C=C/c1cn(-c2ccccc2)nc1OCc1ccc(OCc2nc(-c3ccccc3)oc2C)c(OC)c1)OCC [Example 146, diethyl (E)-2-[3-({3-methoxy-4-[(5-methyl-2-phenyl-1,3-oxazol-4-yl)methoxy]benzyl}oxy)-1-phenyl-1H-pyrazol-4-yl]ethenylphosphonate] | 111% | 92 to 93 °C | –
9 | CCOP(=O)(/C=C/c1cn(-c2ccccc2)nc1OCc1ccc(OCc2csc(N3CCOCC3)n2)c(OC)c1)OCC [Example 191, diethyl (E)-2-{3-[(3-methoxy-4-{[2-(morpholin-4-yl)-1,3-thiazol-4-yl]methoxy}benzyl)oxy]-1-phenyl-1H-pyrazol-4-yl}ethenylphosphonate] | 79% | 93 to 94 °C | –
10 | CCOP(=O)(/C=C/c1cn(-c2ccccc2)nc1OCc1ccc(OCc2nc(-c3cccc(C(=O)O)c3)oc2C)c(OC)c1)OCC [Example 203, 3-[4-({4-[({4-[(E)-2-(diethoxyphosphoryl)ethenyl]-1-phenyl-1H-pyrazol-3-yl}oxy)methyl]-2-methoxyphenoxy}methyl)-5-methyl-1,3-oxazol-2-yl]benzoic acid] | 111% | 148 to 149 °C | –
11 | CCOP(=O)(/C=C/c1cn(-c2ccccc2)nc1OCc1ccc(OCc2nc(-c3cccc(C(=O)OC)c3)oc2C)c(OC)c1)OCC [Example 211, methyl 3-[4-({4-[({4-[(E)-2-(diethoxyphosphoryl)ethenyl]-1-phenyl-1H-pyrazol-3-yl}oxy)methyl]-2-methoxyphenoxy}methyl)-5-methyl-1,3-oxazol-2-yl]benzoate] | 110% | 141 to 142 °C | –
12 | CCOP(=O)(/C=C/c1cn(-c2ccccc2)nc1OCc1ccc(OCc2nc(-c3cccc(C(N)=O)c3)oc2C)c(OC)c1)OCC [Example 239, diethyl (E)-2-(3-{[4-({2-[3-(carbamoyl)phenyl]-5-methyl-1,3-oxazol-4-yl}methoxy)-3-methoxybenzyl]oxy}-1-phenyl-1H-pyrazol-4-yl)ethenylphosphonate] | 116% | 127 to 128 °C | –
13 | CCOP(=O)(/C=C/c1cn(-c2ccccc2)nc1OCc1ccc(OCc2nc(-c3ccc(OC)c(C(=O)O)c3)oc2C)c(OC)c1)OCC [Example 252, 5-{4-({4-[({4-[(E)-2-(diethoxyphosphoryl)ethenyl]-1-phenyl-1H-pyrazol-3-yl}oxy)methyl]-2-methoxyphenoxy}methyl)-5-methyl-1,3-oxazol-2-yl}-2-methoxybenzoic acid] | 111% | 171 to 172 °C | –
14 | CCOP(=O)(/C=C/c1cn(-c2ccccc2)nc1OCc1ccc(OCc2nc(/C=C/C(=O)O)oc2C)c(OC)c1)OCC [Example 315, (2E)-3-[4-({4-[({4-[(E)-2-(diethoxyphosphoryl)ethenyl]-1-phenyl-1H-pyrazol-3-yl}oxy)methyl]-2-methoxyphenoxy}methyl)-5-methyl-1,3-oxazol-2-yl]-2-propenoic acid] | – | 89 to 90 °C | 112%
